Patent US20260116920A1, “HUMAN TRANSFERRIN RECEPTOR BINDING PEPTIDE” (PEPTIDREAM INC., priority 2021, published 2026)
Positions of bridges follow the written chain, without caps; N, C: chain ends. Non-standard residues stand in square brackets, D forms with d. Residues, ends and D or L forms follow the SMILES beside them. *: point of attachment. Ala(1-CH2CO2H-4-piperidyl) = N[C@@H](CC1CCN(CC(=O)O)CC1)C(=O)O; Trp(1-CH2COOH) = N[C@@H](Cc1cn(CC(=O)O)c2ccccc12)C(=O)O; Nle(6-morpholino) = N[C@@H](CCCCN1CCOCC1)C(=O)O; NH(CH2CH2O)8Me = COCCOCCOCCOCCOCCOCCOCCOCCN*; NMePhe(3-Cl) = CN[C@@H](Cc1cccc(Cl)c1)C(=O)O; NMeY = CN[C@@H](Cc1ccc(O)cc1)C(=O)O; 4Pal = N[C@@H](Cc1ccncc1)C(=O)O; PEG4 = NCCOCCOCCOCCOCCC(=O)O; Carboxymethyl = O=C(O)C*; NHCH2CH2OH = OCCN*

Target: T1, human transferrin receptor (hTfR) (Homo sapiens, UniProt P02786)
T1 construct: made in house
Assay: Evaluation of molecular interaction between transferrin receptor (hTfR) and peptide using surface plasmon resonance (SPR)
Type: binding
Conditions: KD class for binding to hTfR by SPR; peptide with the linker shown in the same line; 'low signal indicates no activity'; read-out: SPR
Method: Evaluation Test of Molecular Interaction Between Transferrin Receptor (hTfR) and Peptide Using Surface Plasmon Resonance (SPR)
The intermolecular interactions of various synthesized peptides with the transferrin receptor (hTfR) by surface plasmon resonance (SPR) of the peptides were tested by the methods described below. Specific test methods are shown below.
NTA sensor chip (Global Life Sciences Technologies Japan K.K.) was inserted into BiacoreT200 (Global Life Sciences Technologies Japan K.K.), then the priming operation was performed three times by using running buffer containing: 10 mM HEPES pH 8.0 (Nacalai Tesque, Inc.), 150 mM NaCl (Nacalai Tesque, Inc.), 0.05% Tween 20 (Nacalai Tesque, Inc.), 0.1% BSA (SIGMA-ALDRICH) and 1.0% DMSO (FUJIFILM Wako Pure Chemical Corporation), and equilibrated at a flow rate of 30 μL/min. 350 mM EDTA solution was reacted at a flow rate of 10 μL/min for 60 seconds, 0.5 mM […] solution (Kishida Chemical Co., Ltd.) was reacted at a flow rate of 10 μL/min for 60 seconds, and then the NTA sensor chip was washed with 3 mM EDTA solution (Nacalai Tesque, Inc.) at a flow rate of 10 μL/min for 60 seconds. After mixing 50 μL each of 60 mM EDC solution (Global Life Science Technologies Japan K.K.) and 650 mM NHS solution (Global Life Science Technologies Japan K.K.), the reaction was carried out at a flow rate of 10 μL/min for 420 seconds. 150 μL of 0.5 μM hTfR dimer solution was prepared by dilution with running buffer and reacted at a flow rate of 10 μL/min for 300 seconds to immobilize hTfR on the NTA sensor chip. For the human transferrin receptor (hTfR), recombinant hTfR described in Example 2 of WO2018/124121 was used. After immobilization, capping was performed by reacting with 1.0 M ethanolamine solution (Global Life Sciences Technologies Japan K.K.) at a flow rate of 10 μL/min for 420 seconds. Peptide lysate prepared in DMSO solution to 10 mM was diluted with running buffer to be a final concentration of 10 μM peptide lysate, then peptide solutions of 100 nM, 50 nM, 25 nM, 10 nM, and 5 nM were prepared. Using the above samples, the kinetics of the peptide against hTfR was obtained by SPR measurement.
The kinetic evaluation model was single-cycle kinetics, and curve fitting was performed using Biacore T200 Evaluation Software Version 3.0 (Global Life Science Technologies Japan K.K.). The binding of the peptide to hTfR was evaluated by performing curve fitting on the obtained sensorgram by least squares method and obtaining the KD value.

T1 sequence (P02786 89-760 limits assumed): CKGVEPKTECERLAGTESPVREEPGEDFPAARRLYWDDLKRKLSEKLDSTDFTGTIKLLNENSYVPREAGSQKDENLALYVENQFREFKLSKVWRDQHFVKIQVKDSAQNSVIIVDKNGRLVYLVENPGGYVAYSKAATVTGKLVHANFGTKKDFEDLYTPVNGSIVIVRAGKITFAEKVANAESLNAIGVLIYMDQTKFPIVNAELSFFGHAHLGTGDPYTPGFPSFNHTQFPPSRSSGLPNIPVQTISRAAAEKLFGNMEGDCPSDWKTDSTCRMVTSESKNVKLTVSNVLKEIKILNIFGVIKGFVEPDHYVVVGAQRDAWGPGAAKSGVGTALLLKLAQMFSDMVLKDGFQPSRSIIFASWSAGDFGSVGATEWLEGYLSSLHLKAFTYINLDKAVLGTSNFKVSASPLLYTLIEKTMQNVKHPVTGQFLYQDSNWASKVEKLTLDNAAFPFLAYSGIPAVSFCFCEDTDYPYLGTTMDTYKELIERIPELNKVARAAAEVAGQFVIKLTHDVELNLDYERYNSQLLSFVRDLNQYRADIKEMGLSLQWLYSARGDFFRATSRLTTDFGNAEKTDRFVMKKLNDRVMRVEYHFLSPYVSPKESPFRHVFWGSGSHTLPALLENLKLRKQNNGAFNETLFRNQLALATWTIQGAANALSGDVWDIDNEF

| Kd [nM] | SMILES |
| --- | --- |
| 1 to 100 | CC[C@H](C)[C@@H]1NC(=O)[C@H](Cc2ccc(OC)cc2)NC(=O)[C@H](Cc2ccc(O)cc2)NC(=O)[C@H](CC(N)=O)NC(=O)[C@H](Cc2c[nH]c3ccccc23)NC(=O)[C@H](C(C)C)NC(=O)[C@H](Cc2cccc(Cl)c2)N(C)C(=O)[C@H](C(C)C)NC(=O)[C@H](C)NC(=O)CSC[C@@H](C(=O)NCCOCCOCCOCCOCCC(N)=O)NC(=O)[C@H](Cc2ccc(O)cc2)N(C)C(=O)[C@H](Cc2ccncc2)NC(=O)[C@H](CCC(=O)NCCOCCOCCOCCOCCOCCOCCOCCOC)NC(=O)[C@H](CCCNC(=N)N)NC(=O)[C@H]([C@@H](C)CC)NC1=O [894_0366] ({CH2CO}-AV[NMePhe(3-Cl)]VWNYY(Me)IIRE(NH(CH2CH2O)8Me)[4Pal][NMeY]C[PEG4]-NH2; thioether N-15) |
| < 1 | CC[C@H](C)[C@@H]1NC(=O)[C@H](Cc2ccc(OCC(=O)O)cc2)NC(=O)[C@H](Cc2ccc(O)cc2)NC(=O)[C@H](CC(N)=O)NC(=O)[C@H](Cc2cn(CC(=O)O)c3ccccc23)NC(=O)[C@H](C(C)C)NC(=O)[C@H](Cc2cccc(Cl)c2)N(C)C(=O)[C@H](C(C)C)NC(=O)[C@H](C)NC(=O)CSC[C@@H](C(=O)NCCOCCOCCOCCOCCC(N)=O)NC(=O)[C@H](Cc2ccc(O)cc2)N(C)C(=O)[C@H](Cc2ccccc2)NC(=O)[C@H](CCCNC(=N)N)NC(=O)[C@H](CCCCNC(=O)OC)NC(=O)[C@H]([C@@H](C)CC)NC1=O [894_0378] |
| 1 to 100 | CC[C@H](C)[C@@H]1NC(=O)[C@H](Cc2ccc(OCC(=O)O)cc2)NC(=O)[C@H](Cc2ccc(O)cc2)NC(=O)[C@H](CC(N)=O)NC(=O)[C@H](Cc2cn(CC(=O)O)c3ccccc23)NC(=O)[C@H](C(C)C)NC(=O)[C@H](Cc2cccc(Cl)c2)N(C)C(=O)[C@H](C(C)C)NC(=O)[C@H](C)NC(=O)CSC[C@@H](C(=O)NCCOCCOCCOCCOCCC(N)=O)NC(=O)[C@H](Cc2ccc(O)cc2)N(C)C(=O)[C@H](Cc2ccccc2)NC(=O)[C@H](CCCCNC(=O)OC)NC(=O)[C@H](CCCNC(=N)N)NC(=O)[C@H]([C@@H](C)CC)NC1=O [894_0379] |
| 1 to 100 | CC[C@H](C)[C@@H]1NC(=O)[C@H](Cc2ccc(OCC(=O)O)cc2)NC(=O)[C@H](Cc2ccc(O)cc2)NC(=O)[C@H](CC(N)=O)NC(=O)[C@H](Cc2cn(CC(=O)O)c3ccccc23)NC(=O)[C@H](C(C)C)NC(=O)[C@H](Cc2cccc(Cl)c2)N(C)C(=O)[C@H](C(C)C)NC(=O)[C@H](C)NC(=O)CSC[C@@H](C(=O)NCCOCCOCCOCCOCCC(N)=O)NC(=O)[C@H](Cc2ccc(O)cc2)N(C)C(=O)[C@H](Cc2ccccc2)NC(=O)[C@H](CCCNC(=N)N)NC(=O)[C@H](CCC(=O)NCCO)NC(=O)[C@H]([C@@H](C)CC)NC1=O [894_0380] |
| 1 to 100 | CC[C@H](C)[C@@H]1NC(=O)[C@H](Cc2ccc(OCC(=O)O)cc2)NC(=O)[C@H](Cc2ccc(O)cc2)NC(=O)[C@H](CC(N)=O)NC(=O)[C@H](Cc2cn(CC(=O)O)c3ccccc23)NC(=O)[C@H](C(C)C)NC(=O)[C@H](Cc2cccc(Cl)c2)N(C)C(=O)[C@H](C(C)C)NC(=O)[C@H](C)NC(=O)CSC[C@@H](C(=O)NCCOCCOCCOCCOCCC(N)=O)NC(=O)[C@H](Cc2ccc(O)cc2)N(C)C(=O)[C@H](Cc2ccccc2)NC(=O)[C@H](CCC(=O)NCCO)NC(=O)[C@H](CCCNC(=N)N)NC(=O)[C@H]([C@@H](C)CC)NC1=O [894_0381] |
| < 1 | CC[C@H](C)[C@@H]1NC(=O)[C@H](Cc2ccc(OCC(=O)O)cc2)NC(=O)[C@H](Cc2ccc(O)cc2)NC(=O)[C@H](CC(N)=O)NC(=O)[C@H](Cc2cn(CC(=O)O)c3ccccc23)NC(=O)[C@H](C(C)C)NC(=O)[C@H](Cc2cccc(Cl)c2)N(C)C(=O)[C@H](C(C)C)NC(=O)[C@H](C)NC(=O)CSC[C@@H](C(=O)NCCOCCOCCOCCOCCC(N)=O)NC(=O)[C@H](Cc2ccc(O)cc2)N(C)C(=O)[C@H](Cc2ccccc2)NC(=O)[C@H](CCC(=O)NCCO)NC(=O)[C@H](CCC(=O)NCCO)NC(=O)[C@H]([C@@H](C)CC)NC1=O [894_0382] ({CH2CO}-AV[NMePhe(3-Cl)]V[Trp(1-CH2COOH)]NYY(Carboxymethyl)IIE(NHCH2CH2OH)E(NHCH2CH2OH)F[NMeY]C[PEG4]-NH2; thioether N-15) |
| 1 to 100 | CC[C@H](C)[C@@H]1NC(=O)[C@H](Cc2ccc(OCC(=O)O)cc2)NC(=O)[C@H](Cc2ccc(O)cc2)NC(=O)[C@H](CC(N)=O)NC(=O)[C@H](Cc2cn(CC(=O)O)c3ccccc23)NC(=O)[C@H](C(C)C)NC(=O)[C@H](Cc2cccc(Cl)c2)N(C)C(=O)[C@H](C(C)C)NC(=O)[C@H](C)NC(=O)CSC[C@@H](C(=O)NCCOCCOCCOCCOCCC(N)=O)NC(=O)[C@H](Cc2ccc(O)cc2)N(C)C(=O)[C@H](Cc2ccccc2)NC(=O)[C@H](CCCNC(=N)N)NC(=O)[C@H](CCC(=O)N2CCN(CC(=O)O)CC2)NC(=O)[C@H]([C@@H](C)CC)NC1=O [894_0383] |
| 1 to 100 | CC[C@H](C)[C@@H]1NC(=O)[C@H](Cc2ccc(OCC(=O)O)cc2)NC(=O)[C@H](Cc2ccc(O)cc2)NC(=O)[C@H](CC(N)=O)NC(=O)[C@H](Cc2cn(CC(=O)O)c3ccccc23)NC(=O)[C@H](C(C)C)NC(=O)[C@H](Cc2cccc(Cl)c2)N(C)C(=O)[C@H](C(C)C)NC(=O)[C@H](C)NC(=O)CSC[C@@H](C(=O)NCCOCCOCCOCCOCCC(N)=O)NC(=O)[C@H](Cc2ccc(O)cc2)N(C)C(=O)[C@H](Cc2ccccc2)NC(=O)[C@H](CCC(=O)N2CCN(CC(=O)O)CC2)NC(=O)[C@H](CCCNC(=N)N)NC(=O)[C@H]([C@@H](C)CC)NC1=O [894_0384] |
| < 1 | CC[C@H](C)[C@@H]1NC(=O)[C@H](Cc2ccc(OCC(=O)O)cc2)NC(=O)[C@H](Cc2ccc(O)cc2)NC(=O)[C@H](CC(N)=O)NC(=O)[C@H](Cc2cn(CC(=O)O)c3ccccc23)NC(=O)[C@H](C(C)C)NC(=O)[C@H](Cc2cccc(Cl)c2)N(C)C(=O)[C@H](C(C)C)NC(=O)[C@H](C)NC(=O)CSC[C@@H](C(=O)NCCOCCOCCOCCOCCC(N)=O)NC(=O)[C@H](Cc2ccc(O)cc2)N(C)C(=O)[C@H](Cc2ccccc2)NC(=O)[C@H](CCCNC(=N)N)NC(=O)[C@H](CC2CCN(CC(=O)O)CC2)NC(=O)[C@H]([C@@H](C)CC)NC1=O [894_0386] ({CH2CO}-AV[NMePhe(3-Cl)]V[Trp(1-CH2COOH)]NYY(Carboxymethyl)II[Ala(1-CH2CO2H-4-piperidyl)]RF[NMeY]C[PEG4]-NH2; thioether N-15) |
| 1 to 100 | CC[C@H](C)[C@@H]1NC(=O)[C@H](Cc2ccc(OCC(=O)O)cc2)NC(=O)[C@H](Cc2ccc(O)cc2)NC(=O)[C@H](CC(N)=O)NC(=O)[C@H](Cc2cn(CC(=O)O)c3ccccc23)NC(=O)[C@H](C(C)C)NC(=O)[C@H](Cc2cccc(Cl)c2)N(C)C(=O)[C@H](C(C)C)NC(=O)[C@H](C)NC(=O)CSC[C@@H](C(=O)NCCOCCOCCOCCOCCC(N)=O)NC(=O)[C@H](Cc2ccc(O)cc2)N(C)C(=O)[C@H](Cc2ccccc2)NC(=O)[C@H](CC2CCN(CC(=O)O)CC2)NC(=O)[C@H](CCCNC(=N)N)NC(=O)[C@H]([C@@H](C)CC)NC1=O [894_0387] ({CH2CO}-AV[NMePhe(3-Cl)]V[Trp(1-CH2COOH)]NYY(Carboxymethyl)IIR[Ala(1-CH2CO2H-4-piperidyl)]F[NMeY]C[PEG4]-NH2; thioether N-15) |
| < 1 | CC[C@H](C)[C@@H]1NC(=O)[C@H](Cc2ccc(OCC(=O)O)cc2)NC(=O)[C@H](Cc2ccc(O)cc2)NC(=O)[C@H](CC(N)=O)NC(=O)[C@H](Cc2cn(CC(=O)O)c3ccccc23)NC(=O)[C@H](C(C)C)NC(=O)[C@H](Cc2cccc(Cl)c2)N(C)C(=O)[C@H](C(C)C)NC(=O)[C@H](C)NC(=O)CSC[C@@H](C(=O)NCCOCCOCCOCCOCCC(N)=O)NC(=O)[C@H](Cc2ccc(O)cc2)N(C)C(=O)[C@H](Cc2ccccc2)NC(=O)[C@H](CCCNC(=N)N)NC(=O)[C@H](CCCCN2CCOCC2)NC(=O)[C@H]([C@@H](C)CC)NC1=O [894_0388] |
| < 1 | CC[C@H](C)[C@@H]1NC(=O)[C@H](Cc2ccc(OCC(=O)O)cc2)NC(=O)[C@H](Cc2ccc(O)cc2)NC(=O)[C@H](CC(N)=O)NC(=O)[C@H](Cc2cn(CC(=O)O)c3ccccc23)NC(=O)[C@H](C(C)C)NC(=O)[C@H](Cc2cccc(Cl)c2)N(C)C(=O)[C@H](C(C)C)NC(=O)[C@H](C)NC(=O)CSC[C@@H](C(=O)NCCOCCOCCOCCOCCC(N)=O)NC(=O)[C@H](Cc2ccc(O)cc2)N(C)C(=O)[C@H](Cc2ccccc2)NC(=O)[C@H](CCCCN2CCOCC2)NC(=O)[C@H](CCCNC(=N)N)NC(=O)[C@H]([C@@H](C)CC)NC1=O [894_0389] ({CH2CO}-AV[NMePhe(3-Cl)]V[Trp(1-CH2COOH)]NYY(Carboxymethyl)IIR[Nle(6-morpholino)]F[NMeY]C[PEG4]-NH2; thioether N-15) |
